In the experiment the target is Cyclin-T1/Cyclin-dependent kinase 9 (Homo sapiens, UniProt O60563+P50750). The experiment in a line: Inhibition of recombinant full length human N-terminal GST-fused CDK9 (1 to 372 residues)/His-tagged CyclinT1 (1 to 726 residues) expressed in baculovirus infected insect cells using FITC-X-GSRTPMY-NH2 as substrate preincubated for 10 mins followed by MgCl2 addition and measured after 90 mins in presence of 5 mM ATP by mobility shift assay.

pIC50: −log10 of the molar value.

Chain of Cyclin-T1/Cyclin-dependent kinase 9 (O60563 whole entry, the tested form may be a part): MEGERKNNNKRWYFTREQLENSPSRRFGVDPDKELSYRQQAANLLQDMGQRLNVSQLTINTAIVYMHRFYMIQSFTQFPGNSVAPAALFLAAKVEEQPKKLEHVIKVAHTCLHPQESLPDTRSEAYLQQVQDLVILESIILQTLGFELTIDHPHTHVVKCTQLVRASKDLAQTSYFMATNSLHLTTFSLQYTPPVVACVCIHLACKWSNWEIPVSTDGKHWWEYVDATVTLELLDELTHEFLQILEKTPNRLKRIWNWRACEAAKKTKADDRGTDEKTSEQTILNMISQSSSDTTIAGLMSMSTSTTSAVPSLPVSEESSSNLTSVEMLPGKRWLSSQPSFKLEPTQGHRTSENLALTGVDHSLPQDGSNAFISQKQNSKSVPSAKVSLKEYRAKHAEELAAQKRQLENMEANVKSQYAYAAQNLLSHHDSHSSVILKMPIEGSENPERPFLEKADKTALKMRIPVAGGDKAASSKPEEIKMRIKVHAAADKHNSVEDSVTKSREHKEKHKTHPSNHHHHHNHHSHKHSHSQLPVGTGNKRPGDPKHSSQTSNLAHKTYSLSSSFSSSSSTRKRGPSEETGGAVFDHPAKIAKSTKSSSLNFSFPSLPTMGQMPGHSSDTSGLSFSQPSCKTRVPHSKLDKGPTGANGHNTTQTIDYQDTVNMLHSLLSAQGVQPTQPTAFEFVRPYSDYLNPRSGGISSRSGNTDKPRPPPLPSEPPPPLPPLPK
Chain of Cyclin-T1/Cyclin-dependent kinase 9 (P50750 whole entry, the tested form may be a part): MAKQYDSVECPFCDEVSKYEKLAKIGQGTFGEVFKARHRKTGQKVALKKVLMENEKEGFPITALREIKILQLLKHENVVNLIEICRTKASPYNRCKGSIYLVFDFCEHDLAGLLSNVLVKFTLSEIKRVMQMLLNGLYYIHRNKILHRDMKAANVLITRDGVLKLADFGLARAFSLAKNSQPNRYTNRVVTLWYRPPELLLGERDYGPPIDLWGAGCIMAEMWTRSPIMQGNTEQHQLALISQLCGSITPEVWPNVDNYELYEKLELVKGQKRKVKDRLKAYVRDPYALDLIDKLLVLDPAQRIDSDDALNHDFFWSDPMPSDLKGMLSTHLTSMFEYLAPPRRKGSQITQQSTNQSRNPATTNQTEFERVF

`CC(=O)N[C@@H]1CCC[C@H](C(=O)Nc2cc(-c3cnn4c3NCCC4)c(Cl)cn2)C1` [US10717746, Example 15]: the pIC50 was 6.46.

Regarding `CC(=O)N[C@@H]1CCC[C@H](C(=O)Nc2cc(-c3cnn4c3CC(C)(C)C4)c(F)cn2)C1` [US10717746, Example 25], the pIC50 is 8.40. The value for `CC1(C)Cc2c(-c3cc(NC(=O)[C@H]4C[C@@H](O)C4)ncc3Cl)cnn2C1` [US10717746, Example 27] was 7.60; that for `CC(=O)N[C@@H]1CCC[C@H](C(=O)Nc2cc(-c3cnn4c3CC(C)(C)C4)c(C#N)cn2)C1` [US10717746, Example 39] was 7.21; that for `CC(=O)N[C@@H]1CCC[C@H](C(=O)Nc2cc(-c3cnn4c3CC(C)(C)CC4)ccn2)C1` [US10717746, Example 44] was 8.10. As to `CC(=O)N[C@@H]1CC[C@H](C(=O)Nc2cc(-c3cnn4c3CC(C)(C)C4)c(Cl)cn2)C1` [US10717746, Example 48], the pIC50 was 8.52. For the compound `CC(=O)N[C@@H]1CCC[C@H](C(=O)Nc2cc(-c3cnn4c3CCCC4)c(F)cn2)C1` [US10717746, Example 63], the pIC50 was 7.29. Consider `CC(=O)N[C@@H]1CCC[C@H](C(=O)Nc2cc(-c3cnn4c3CCCCC4)c(Cl)cn2)C1` [US10717746, Example 66], for which the pIC50 was 7.64. Under `CC(=O)N[C@@H]1CCC[C@H](C(=O)Nc2cc(-c3cnn4c3CCCC4O)c(Cl)cn2)C1` (stereo partly specified) [US10717746, Example 78] stands 7.22.

With `CC(=O)N[C@@H]1CCC[C@H](C(=O)Nc2cc(-c3cn[nH]c3CCCCO)c(Cl)cn2)C1` [US10717746, Example 78a], the pIC50 is 7.07.

Regarding `CC(=O)N[C@@H]1CCC[C@H](C(=O)Nc2cc(-c3cn[nH]c3CC(C)(C)CO)c(Cl)cn2)C1` [US10717746, Example 82a], the pIC50 is 6.86.

The record behind these values is BindingDB's records for doi:10.1021/acs.jmedchem.0c01754 (Astrazeneca, 2020).
